Assay results taken from patent US20060192819A1, “Recording apparatus” (Fuji Xerox Co., Ltd., priority 2005, published 2006).

Experiment: Solubility of ionic liquid in 100 g of ink or treating solution
Type: physicochemical
Conditions: about 23° C., left 1 day
Description: Solubility (the amount of the ionic liquid that can be solved in 100 g of the ink) is defined by mixing the ink and the ionic liquid in predetermined amounts and leaving the resultant mixture for 1 day while keeping it at a temperature of about 23° C. The amount of ionic liquid that has separated from the ink 1 day after mixing is determined as the amount of ionic liquid exceeding the solubility of the ionic liquid in the ink.

SMILES | Solubility (g) of ionic liquid in 100 g of ink (ink B) | Solubility (g) of ionic liquid in 100 g of ink (ink A) | Solubility (g) ionic liquid in 100 g of treating solution (treating solution A)
CC[N+](C)(CC)CCOC.F[B-](F)(F)F [Example 1-4, N-diethyl-3-methyl-N-(2-methoxyethyl)tetrafluoroborate] | less than 5 g |  | 
CC[N+](C)(CC)CCOC.O=S(=O)([N-]S(=O)(=O)C(F)(F)F)C(F)(F)F [Example 1-2, N-diethyl-3-methyl-N-(2-methoxyethyl)ammonium bis(trifluoromethanesulfonyl)imide] |  | 0.1 g or less | 0.1 g or less
